What was measured:
pregnant mouse foeti = assay: Foetotoxic-teratogenic effect of (I) in pregnant mice; type: in vivo, mouse (Swiss Webster); settings: for No of foeti / No of implantation sites / No of live foeti / No of malformations: 6 mice
Protocol: Two groups of six fully impregnated mice (Swiss Webster offspring) were treated orally with aqueous solutions of (I) once per day (10 ml/kg) starting day 1 through to day 8 of the gestation period. On day 20 of the pregnancies the mice were lightly anaethetised with diethyl ether and the uterus exposed by caesarian section. The total number of implantation sites were counted. All foeti were removed and examined for
(b) macroscopic gross anatomical abnormalities of limbs and head.

Mouse sarcoma--Ms 52 B = assay: In vitro cytostatic cytotoxic effects, MS 52 B; type: cell-based; settings: I 40 ng, 37° C.
Protocol: (§1) "In vitro" cytostatic cytotoxic effects with Hypoxis rooperi extracts (example 2(e)(i)) and Compound I Four different cell culture types were used:
i. Mouse sarcoma--Ms 52 B
(§2) Procedure: Trypsinized cells were harvested into MEM and suitably diluted to supply about 2×10^5 cells per cm^3. A culture flask containing 4,5 cm^3 of culture medium was seeded with 0.5 cm^3 of the prepared cell suspension. This cell culture was then incubated at 37° C. for 24 hours before the test substances dissolved in 0.5 cm^3 of the culture medium were added.

Mouse = assay: Acute toxicity evaluation of (I), mouse; type: in vivo; settings: for Mortality (Range %): dead/treated
Protocol: (§3) Solutions of (I) in distilled water were prepared with the required concentration. Administered volumes were kept constant at the rate of 10 cm^3 per kg. In each case equal numbers of males and females were treated with a single dose. All animals were observed over 7 days for signs of toxic and/or pharmaco-dynamic effects.
(§4) A necropsy was performed on all surviving animals.

[1] = Acute toxicity evaluation of (I), mouse; type: in vivo; settings: in vivo, ip, mouse, intraperitoneal, dead/treated (range %)
Protocol: as §3, §4

Rabbits = assay: Acute toxicity evaluation of (I), rabbits; type: in vivo, rabbit; settings: intravenous; for Mortality (Range %): dead/treated
Protocol: as §3, §4

Heha 229 = assay: In vitro cytostatic cytotoxic effects, Heha 229; type: cell-based; settings: Heha 229, I 40 ng, 37° C.
Protocol: as §1, §2

Mouse melacoma--Mel B1-6 = assay: In vitro cytostatic cytotoxic effects, Mel B1-6; type: cell-based; settings: Mel B1-6, I 40 ng, 37° C.
Protocol: as §1
ii. Mouse melacoma--Mel B1-6
as §2

[2] = test system: Human foetal foreskin fibroblasts--HFSF; assay: In vitro cytostatic cytotoxic effects, HFSF (non-malignant); type: cell-based; settings: I 40 ng, 37° C.
Protocol: as §1
iv. Human foetal foreskin fibroblasts--HFSF (non-malignant)
as §2

Question: Which No of foeti (pregnant mouse foeti; 20 mg/kg oral) does the source give for `OC[C@H]1O[C@@H](Oc2ccc(C#CC/C=C/c3ccc(O[C@@H]4O[C@H](CO)[C@@H](O)[C@H](O)[C@H]4O)c(O)c3)cc2O)[C@H](O)[C@@H](O)[C@@H]1O` [Compound I] here?
Answer: The No of foeti was 52.

Question: What about the “No of implantation sites” value (pregnant mouse foeti; 20 mg/kg oral) of the same compound?
Answer: Its value is 58.

Question: And the “No of live foeti” value (pregnant mouse foeti; 20 mg/kg oral)?
Answer: Its value is 50.

Question: What about the No of malformations (pregnant mouse foeti; 20 mg/kg oral) of the same compound?
Answer: The No of malformations was 0.

Question: What about the No of foeti (pregnant mouse foeti; 100 mg/kg oral) of the same compound?
Answer: The No of foeti was 49.

Question: What about the “No of implantation sites” value (pregnant mouse foeti; 100 mg/kg oral) of the same compound?
Answer: The value was 58.

Question: What about the “No of live foeti” value (pregnant mouse foeti; 100 mg/kg oral) of the same compound?
Answer: Its value is 45.

Question: And the No of malformations (pregnant mouse foeti; 100 mg/kg oral)?
Answer: Its No of malformations is 3 (2?).

Question: And the “abnormally reduced growth rate of the foeti” value (pregnant mouse foeti; any of the treated groups)?
Answer: Its value is “no indications of abnormally reduced growth rate of the foeti”.

Question: What about the teratogenic effects (pregnant mouse foeti; at the doses administered) of the same compound?
Answer: Its teratogenic effects is “unlikely”.

Question: And the “adverse effects in the treated mother animals” value (pregnant mouse foeti; treated mother animals)?
Answer: The value was “No adverse effects were detected”.

Question: What about the Confluency (Mouse sarcoma--Ms 52 B; 24 hours) of the same compound?
Answer: The Confluency was 40%.

Question: And the Confluency (Mouse sarcoma--Ms 52 B; 48 hours)?
Answer: The Confluency was 20%.

Question: And the Confluency (Mouse sarcoma--Ms 52 B; 72 hours)?
Answer: Its Confluency is 20%.

Question: And the Confluency (Mouse sarcoma--Ms 52 B; 96 hours)?
Answer: Its Confluency is 20%.

Question: What about the “direct toxic effects (conclusion)” value (Mouse; acute toxicity, single dose) of the same compound?
Answer: Its value is “low degree of direct toxic effects”.

Question: What about the “Mortality (Range %)” value (Mouse; mouse, intraperitoneal, 250 mg/kg) of the same compound?
Answer: The value was 0/10.

Question: What about the “Mortality (Range %)” value (Mouse; mouse, intraperitoneal, 500 mg/kg) of the same compound?
Answer: The value was 0/20.

Question: What about the “Remarks: signs of discomfort” value (Mouse; mouse, intraperitoneal, all animals, increasing with dose) of the same compound?
Answer: Its value is “discomfort”.

Question: And the “Mortality (Range %)” value (Mouse; mouse, oral, 1000 mg/kg)?
Answer: Its value is 0/20.

Question: And the “Mortality (Range %)” value (Mouse; mouse, oral, 2000 mg/kg)?
Answer: The value was 0/20.

Question: And the “Mortality (Range %)” value (Mouse; mouse, oral, 4000 mg/kg)?
Answer: The value was 0/20.

Question: What about the “Remarks: macroscopic lesions” value (Mouse; mouse, oral, 1000-4000 mg/kg, any animal) of the same compound?
Answer: The value was “No macroscopic”.

Question: And the “macroscopic lesions on necropsy” value (Mouse; surviving animals)?
Answer: The value was “No macroscopic lesions were observed”.

Question: And the mortality at 168 h ([1]; 1000 mg/kg)?
Answer: The mortality at 168 h was 16.7%.

Question: And the mortality at 168 h ([1]; 2000 mg/kg)?
Answer: The mortality at 168 h was 90%.

Question: And the “Mortality (Range %)” value (Rabbits; 50 mg/kg)?
Answer: The value was 0/2.

Question: What about the “Mortality (Range %)” value (Rabbits; 100 mg/kg) of the same compound?
Answer: Its value is 0/2.

Question: And the “Remarks: macroscopic lesions” value (Rabbits; 50 and 100 mg/kg)?
Answer: Its value is “no macropscopic”.

Question: And the “Remarks: thrombophlebitis at the injection site” value (Rabbits; 50 and 100 mg/kg)?
Answer: The value was “No thrombophlebitis”.

Question: And the “Remarks: visible effects” value (Rabbits; 50 and 100 mg/kg)?
Answer: Its value is “No visible effects”.

Question: And the Confluency (Heha 229; 24 hours)?
Answer: The Confluency was 50%.

Question: What about the Confluency (Heha 229; 48 hours) of the same compound?
Answer: Its Confluency is 60%.

Question: And the Confluency (Heha 229; 72 hours)?
Answer: The Confluency was 50%.

Question: What about the Confluency (Heha 229; 96 hours) of the same compound?
Answer: The Confluency was 30%.

Question: And the Confluency (Mouse melacoma--Mel B1-6; 24 hours)?
Answer: The Confluency was 40%.

Question: What about the Confluency (Mouse melacoma--Mel B1-6; 48 hours) of the same compound?
Answer: The Confluency was 30%.

Question: What about the Confluency (Mouse melacoma--Mel B1-6; 72 hours) of the same compound?
Answer: The Confluency was 40%.

Question: What about the Confluency (Mouse melacoma--Mel B1-6; 96 hours) of the same compound?
Answer: The Confluency was 40%.

Question: And the Confluency (Mouse melacoma--Mel B1-6; 120 hours)?
Answer: The Confluency was 30%.

Question: What about the Confluency ([2]; 24 hours) of the same compound?
Answer: Its Confluency is 40%.

Question: And the Confluency ([2]; 48 hours)?
Answer: The Confluency was 50%.

Question: And the Confluency ([2]; 72 hours)?
Answer: The Confluency was 50%.

Question: And the Confluency ([2]; 96 hours)?
Answer: The Confluency was 40%.

— patent publication US4652636A, “Pentene-diphenyl-diglucoside containing compound” (priority 1982, dated 1987)
